Source: the NIST ThermoML archive (doi:10.1021/je049960h)

Experiment: xn = mol fraction of the nth substance listed
Details: 101.3 kPa, Liquid; for viscosity: Capillary tube (Ostwald / Ubbelohde) method; for mass density: Pycnometric method; for thermal conductivity: Hot wire method

CC(O)CO (stereo unspecified) [1,2-propanediol] + O
Details	mass density [kg/m3]	thermal conductivity [W/m/K]	viscosity [mPa·s]
296.65 K, x1 = 0.25	1040	–	7.39
296.8 K, x1 = 0.75	1038	–	32.4
297.05 K, x1 = 0.5	1042	–	17.5
298.5 K, x1 = 0.75	–	0.212	–
298.9 K, x1 = 0.5	–	0.243	–
299.6 K, x1 = 0.25	–	0.322	–
313.05 K, x1 = 0.25	1028	–	3.9
313.05 K, x1 = 0.5	1029	–	8.47
313.05 K, x1 = 0.75	1026	–	14.4
322.1 K, x1 = 0.25	–	0.337	–
323.7 K, x1 = 0.75	–	0.214	–
324.2 K, x1 = 0.5	–	0.25	–
333.1 K, x1 = 0.25	1013	–	2.12
333.1 K, x1 = 0.5	1013	–	4.14
333.1 K, x1 = 0.75	1010	–	6.46
347.2 K, x1 = 0.25	–	0.348	–
348.2 K, x1 = 0.75	–	0.215	–
349.1 K, x1 = 0.5	–	0.254	–
353.05 K, x1 = 0.25	996.5	–	1.32
353.05 K, x1 = 0.5	996.8	–	–
353.05 K, x1 = 0.75	993.8	–	3.45
353.1 K, x1 = 0.5	–	–	2.36
363.3 K, x1 = 0.25	988	–	1.09
363.35 K, x1 = 0.75	985.1	–	2.66
363.4 K, x1 = 0.5	987.9	–	1.84
372.1 K, x1 = 0.25	–	0.353	–
372.1 K, x1 = 0.5	–	0.255	–
372.8 K, x1 = 0.75	–	0.215	–
373.45 K, x1 = 0.25	979.3	–	0.915
378.35 K, x1 = 0.75	971.6	–	1.87
381.55 K, x1 = 0.25	971.3	–	–
383.5 K, x1 = 0.5	970.3	–	1.22
384.15 K, x1 = 0.25	–	–	0.778
388.5 K, x1 = 0.75	963.2	–	1.52
390.55 K, x1 = 0.25	963.4	–	–
394.55 K, x1 = 0.25	–	–	0.657
395.75 K, x1 = 0.5	958.1	–	–
396 K, x1 = 0.75	–	0.214	–
396.4 K, x1 = 0.25	–	0.353	–
397.1 K, x1 = 0.5	–	0.255	–
398.3 K, x1 = 0.75	954.2	–	1.27
398.75 K, x1 = 0.5	–	–	0.952
407.45 K, x1 = 0.5	947.1	–	–
407.75 K, x1 = 0.25	947.5	–	–
408.15 K, x1 = 0.75	944.7	–	1.08
411.45 K, x1 = 0.5	–	–	0.793
411.75 K, x1 = 0.25	–	–	0.525
411.75 K, x1 = 0.75	940.7	–	–
420.2 K, x1 = 0.5	–	0.253	–
420.4 K, x1 = 0.25	–	0.347	–
420.8 K, x1 = 0.75	–	0.212	–
424.55 K, x1 = 0.25	930.2	–	–
424.95 K, x1 = 0.5	929.6	–	–
428.15 K, x1 = 0.75	924.7	–	–
428.95 K, x1 = 0.5	–	–	0.618
429.55 K, x1 = 0.25	–	–	0.426
439.95 K, x1 = 0.5	914.7	–	–
440.4 K, x1 = 0.25	–	0.338	–
440.8 K, x1 = 0.5	–	0.249	–
441.45 K, x1 = 0.75	912.7	–	–
442 K, x1 = 0.75	–	0.21	–
443.95 K, x1 = 0.5	–	–	0.517
444.55 K, x1 = 0.25	908.3	–	–
449.55 K, x1 = 0.25	–	–	0.344

CC(O)COC(C)COC(C)CO (stereo unspecified) [2-[2-(2-hydroxypropoxy)propoxy]-1-propanol] + O
Details	mass density [kg/m3]	thermal conductivity [W/m/K]	viscosity [mPa·s]
294.8 K, x1 = 0.5	1028	–	66.6
295.35 K, x1 = 0.75	1021	–	71.2
295.4 K, x1 = 0.25	1037	–	36.7
297.3 K, x1 = 0.25	–	0.215	–
297.7 K, x1 = 0.75	–	0.157	–
298.1 K, x1 = 0.5	–	0.174	–
313.05 K, x1 = 0.25	1023	–	14.2
313.05 K, x1 = 0.5	1013	–	22.4
313.05 K, x1 = 0.75	1007	–	24.6
324.3 K, x1 = 0.25	–	0.22	–
325.2 K, x1 = 0.75	–	0.156	–
325.8 K, x1 = 0.5	–	0.174	–
333.05 K, x1 = 0.25	1006	–	6.27
333.1 K, x1 = 0.5	996.8	–	9.12
333.1 K, x1 = 0.75	990.4	–	9.92
349.1 K, x1 = 0.75	–	0.156	–
349.7 K, x1 = 0.25	–	0.223	–
350.2 K, x1 = 0.5	–	0.175	–
353.05 K, x1 = 0.25	989	–	3.36
353.05 K, x1 = 0.5	979.9	–	4.5
353.1 K, x1 = 0.75	973.7	–	4.93
368.25 K, x1 = 0.25	975.3	–	2.3
368.25 K, x1 = 0.5	966.8	–	2.96
368.25 K, x1 = 0.75	960.5	–	3.21
374.1 K, x1 = 0.25	–	0.224	–
375.1 K, x1 = 0.5	–	0.172	–
375.5 K, x1 = 0.75	–	0.155	–
378.15 K, x1 = 0.25	966.7	–	1.84
378.5 K, x1 = 0.5	957.4	–	2.32
378.55 K, x1 = 0.75	951.3	–	2.53
388.4 K, x1 = 0.5	947.8	–	1.88
388.4 K, x1 = 0.75	942.4	–	2.03
393.05 K, x1 = 0.25	953	–	–
394.05 K, x1 = 0.5	944	–	–
394.55 K, x1 = 0.25	–	–	1.35
395.15 K, x1 = 0.5	–	–	1.67
398.35 K, x1 = 0.75	933.3	–	1.66
398.9 K, x1 = 0.25	–	0.222	–
399 K, x1 = 0.5	–	0.172	–
399.4 K, x1 = 0.75	–	0.152	–
408.3 K, x1 = 0.75	924.3	–	1.44
408.65 K, x1 = 0.5	930.6	–	–
409.05 K, x1 = 0.25	936.6	–	–
411.65 K, x1 = 0.5	–	–	1.26
412.05 K, x1 = 0.25	–	–	1.01
412.45 K, x1 = 0.75	–	–	1.31
414.15 K, x1 = 0.75	918.6	–	–
422.5 K, x1 = 0.75	–	0.15	–
423 K, x1 = 0.25	–	0.22	–
424.5 K, x1 = 0.5	–	0.168	–
426.65 K, x1 = 0.25	918.9	–	–
426.75 K, x1 = 0.5	913.2	–	–
428.25 K, x1 = 0.75	–	–	1.02
429.25 K, x1 = 0.75	904.7	–	–
429.65 K, x1 = 0.25	–	–	0.785
429.75 K, x1 = 0.5	–	–	0.952
445 K, x1 = 0.75	889.5	–	–
446.15 K, x1 = 0.25	897.8	–	–
446.55 K, x1 = 0.75	–	–	0.791
446.85 K, x1 = 0.5	892.5	–	–
448.2 K, x1 = 0.25	–	0.213	–
448.3 K, x1 = 0.5	–	0.164	–
449 K, x1 = 0.75	–	0.144	–
449.15 K, x1 = 0.25	–	–	0.615
449.85 K, x1 = 0.5	–	–	0.738

OCCCOCCCO [4-oxa-1,7-heptanediol] + O
Details	mass density [kg/m3]	thermal conductivity [W/m/K]	viscosity [mPa·s]
293.4 K, x1 = 0.5	1034	–	59.9
293.9 K, x1 = 0.75	1028	–	88.5
295.05 K, x1 = 0.25	1040	–	22.3
297.8 K, x1 = 0.25	–	0.248	–
297.9 K, x1 = 0.5	–	0.19	–
298.4 K, x1 = 0.75	–	0.167	–
313.05 K, x1 = 0.25	1026	–	9.14
313.05 K, x1 = 0.5	1019	–	18.6
313.05 K, x1 = 0.75	1013	–	25.8
323.9 K, x1 = 0.25	–	0.256	–
324.8 K, x1 = 0.75	–	0.169	–
324.9 K, x1 = 0.5	–	0.193	–
333.1 K, x1 = 0.25	1010	–	4.3
333.1 K, x1 = 0.5	1003	–	7.68
333.1 K, x1 = 0.75	997	–	9.71
349.3 K, x1 = 0.5	–	0.195	–
349.9 K, x1 = 0.25	–	0.26	–
350.1 K, x1 = 0.75	–	0.167	–
353.1 K, x1 = 0.25	992.8	–	2.42
353.1 K, x1 = 0.5	986	–	3.89
353.1 K, x1 = 0.75	980.5	–	4.71
368.25 K, x1 = 0.25	979.2	–	1.72
372.2 K, x1 = 0.5	969.5	–	2.33
372.2 K, x1 = 0.75	964.3	–	2.73
374 K, x1 = 0.25	–	0.264	–
374.9 K, x1 = 0.5	–	0.196	–
375.1 K, x1 = 0.75	–	0.169	–
378.75 K, x1 = 0.25	–	–	1.41
382.5 K, x1 = 0.5	960.1	–	1.85
382.5 K, x1 = 0.75	955.2	–	2.14
392.3 K, x1 = 0.75	946.2	–	1.72
392.4 K, x1 = 0.5	951	–	1.53
394.25 K, x1 = 0.5	949.4	–	–
395.75 K, x1 = 0.5	–	–	1.45
395.95 K, x1 = 0.25	953.1	–	–
397.45 K, x1 = 0.25	–	–	0.983
398.6 K, x1 = 0.25	–	0.263	–
398.9 K, x1 = 0.5	–	0.195	–
399 K, x1 = 0.75	–	0.169	–
402.3 K, x1 = 0.75	936.9	–	1.43
405.35 K, x1 = 0.75	934.5	–	–
406.85 K, x1 = 0.75	–	–	1.33
407.85 K, x1 = 0.5	936.8	–	–
408.35 K, x1 = 0.25	941.3	–	–
410.85 K, x1 = 0.5	–	–	1.11
411.35 K, x1 = 0.25	–	–	0.803
418.35 K, x1 = 0.75	923	–	–
421.35 K, x1 = 0.75	–	–	1.05
423.8 K, x1 = 0.25	–	0.264	–
424.3 K, x1 = 0.75	–	0.167	–
424.4 K, x1 = 0.5	–	0.193	–
426.35 K, x1 = 0.5	918.8	–	–
426.75 K, x1 = 0.25	922.7	–	–
429.35 K, x1 = 0.5	–	–	0.829
429.75 K, x1 = 0.25	–	–	0.63
437.25 K, x1 = 0.75	904.2	–	–
440.25 K, x1 = 0.75	–	–	0.795
444.65 K, x1 = 0.25	904.1	–	–
445.25 K, x1 = 0.5	899.1	–	–
447.65 K, x1 = 0.25	–	–	0.512
448.25 K, x1 = 0.5	–	–	0.64
448.8 K, x1 = 0.5	–	0.187	–
448.9 K, x1 = 0.75	–	0.163	–
455.15 K, x1 = 0.75	887.2	–	–
458.15 K, x1 = 0.75	–	–	0.641
